In brackets after ≈: the same amount, converted by molar mass.
Assays:
[1] = system: T1, E. coli pLC1021 (luc-trpAt trans-translation reporter); design: species or system Escherichia coli pLC1021; luc-trpAt non-stop luciferase reporter; luminescence rises when trans-translation is inhibited; normalized to KKL-35 and DMSO; conditions: 2 h, 20 µM
T1 construct: pLC1021 luc-trpAt reporter strain
Procedure: The luciferase screen was performed as previously described ([16]). […] 48 µL of cells was transferred to white 96-well plates, and 2 µL DMSO or 20 µM compound, or 20 µM KKL-35 was added. Plates were sealed with adhesive film, vortexed gently to mix, and incubated at room temperature for 2 h. 50 µL Bright-Glo reagent (Promega, Madison, WI) was added to each well, and the plates were sealed with adhesive film, vortexed vigorously, and incubated for an additional 10 min at room temperature. Luminescence was measured at 560 nm using a SpectraMax i3 microplate reader and readings for each plate were normalized to the average of three KKL-35-treated wells (positive control) and three DMSO-treated wells (negative control) within the plate to correct for plate-to-plate and day-to-day variations. Results from at least two biological repeats were averaged, and GraphPad Prism was used to plot the data. We screened a library of 1,601 anti-tubercular small molecules for their ability to inhibit trans-translation using a luciferase reporter in Escherichia coli. In this luc-trpAt reporter, the firefly luciferase gene has a trpA transcriptional terminator before the stop codon, such that luciferase is translated from a non-stop mRNA ([16]). When trans-translation is active, the luciferase will be tagged and degraded, but when trans-translation is inhibited, active luciferase will accumulate, resulting in a luminescent signal when luciferin is added. Luciferase activity was measured after growth in the presence of compounds from the library at 20 µM, using the known trans-translation inhibitor KKL-35 as a positive control (Fig. 1A) ([16], [17]). Compounds with activity one standard deviation above the median were scored as positive (Fig. S1 and Table S1).

[2] = system: B. anthracis; test: microbe, parasite or virus in culture; conditions: Bacillus anthracis, 20 h, read-out: MIC
[3] = system: T2, E. coli ΔtolC; test: microbe, parasite or virus in culture; design: species or system Escherichia coli ΔtolC; broth microdilution MIC, lowest concentration with no visible growth; conditions: Escherichia coli, 20 h, read-out: MIC
T2 construct: ΔtolC

[4] = biological target: T3, ribosomal protein bL12 (Escherichia coli, UniProt P0A7K2); test: biochemical; format: binding
T3 construct: gene rplL
T3 sequence (P0A7K2 2-121): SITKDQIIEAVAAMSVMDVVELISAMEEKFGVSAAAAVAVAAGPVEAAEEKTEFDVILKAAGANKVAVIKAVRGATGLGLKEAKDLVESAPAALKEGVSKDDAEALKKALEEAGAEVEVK

[5] = biological target: T4, ribosomal protein bL12 (Mycobacterium tuberculosis, UniProt P9WHE3); test: biochemical; format: binding
T4 construct: gene rplL; 6His-tagged M. tuberculosis bL12
T4 sequence (P9WHE3 1-130): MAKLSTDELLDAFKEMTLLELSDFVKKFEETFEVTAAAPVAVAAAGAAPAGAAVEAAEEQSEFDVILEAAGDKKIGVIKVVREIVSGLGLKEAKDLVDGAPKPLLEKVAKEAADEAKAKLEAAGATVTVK

[6] = system: M. tuberculosis; test: microbe, parasite or virus in culture; design: species or system Mycobacterium tuberculosis H37Rv ΔRD1 ΔpanCD; conditions: Mycobacterium tuberculosis, 168 h, read-out: MIC

Row | SMILES | % activation [1] | further results
1 | CC(C)[C@H]1OC(=O)[C@H](Cc2ccccc2)N(C)C(=O)[C@@H](C(C)C)OC(=O)[C@H](Cc2ccccc2)N(C)C(=O)[C@@H](C(C)C)OC(=O)[C@H](Cc2ccccc2)N(C)C1=O [KKL-0304] | 0% | –
2 | O=C(Nc1nc(NC(=O)c2ccco2)n(-c2ccccc2)n1)c1ccccc1 [KKL-1005, N-(5-benzamido-2-phenyl-1,2,4-triazol-3-yl)furan-2-carboxamide] | – | MIC [2]: 9.3 µg/mL (≈ 24.9 µM); MIC [3]: 9.3 µg/mL (≈ 24.9 µM); Kd [4]: 8 ± 2 µM; Kd [5]: 4 ± 0.2 µM; MIC [6]: 4.7 µg/mL (≈ 12.6 µM)
3 | CCc1ccc([C@@H]2C[C@H](C(F)(F)F)n3ncc(C(=O)NCc4ccc(OC)cc4)c3N2)cc1 [KKL-1692] | 0% | –
4 | Cc1cccc(-c2nc(Nc3ccncn3)c3sccc3n2)n1 [KKL-1695] | 0% | –
5 | Cc1cccc(-c2nc(Nc3ccncn3)c3c(C)csc3n2)n1 [KKL-1712] | 6% | –
6 | O=C(NC12CC3CC(CC(C3)C1)C2)c1cc2cc(Cl)ccc2[nH]1 [KKL-1781] | 0% | –
7 | c1cc2c(s1)CCOC21CCN(Cc2ccc3c(c2)OCCO3)CC1 [KKL-1815] | 0% | –
8 | COc1ccc(CCNc2cc(-c3ccccc3)nc3ncnn23)cc1 [KKL-1831] | 3% | –
9 | Cc1ccc2nc(C)c(C(=O)NCc3cccs3)n2c1 [KKL-1863] | 4% | –
10 | CNc1nc(SC)nc2ccccc12 [KKL-1869] | 0% | –

Source: paper PMC12548414 (Journal of Bacteriology, 2025)
